Measured values as given in US12110287B2, “Heterocyclic derivatives as Nav1.7 and Nav1.8 blockers” (RaQualia Pharma Inc., priority 2018, dated 2024).

Molecular target: Nav1.7 (Homo sapiens, UniProt Q15858)
Assay: EFS-FRET assay
Type: cell-based
Parameters: expressed in transfected cells; host or cells: CHO (Chinese hamster ovary) cells
Details: CHO cells expressing human Nav1.7 channels, read-out: IC50 against Nav1.7
Method: This screen is used to determine the effects of compounds on human Nav1.7 channels, utilizing electrical field stimulation (EFS) system in 96-well plate format on FDSS (Hamamatsu Photonics) platform. The changes of membrane potential are monitored with FRET dye pair, DiSBAC2(3) and PTS18.
CHO (Chinese hamster ovary) cells expressing human Nav1.7 channels are grown in T225 flasks, in a 5% CO2 humidified incubator to about 80% confluence. Media composition consists of HAM/F12 with Glutamax I, 10% FCS, 100 units/mF penicillin and 100 microgram/mF hygromycin.
• Seed each cell lines (1×10^5 cells/well) into 96-well plates prior to experimentation. • Incubate at 37° C. in 5% CO2 for 24 hours. • Wash each well with assay buffer (140 mM NaCl, 4.5 mM KCl, 10 mM D-Glucose, 2 mM CaCl2, 1 mM MgCl2, 10 mM HEPES, pH 7.4 adjusted with NaOH) twice. • Add 1st loading solution containing 10 microM PTS18 and 0.06% Pluronic F-127 in assay buffer. • Incubate the plate at rt in dark for 1 hour. • Remove 1st loading solution and add 2nd loading solution containing 12.5 microM DiSBAC2(3), 1.25 mM Xylene Fast Yellow and 0.0075% Pluronic F-127 in assay buffer. • Place the plate under the dark at rt for 25 minutes. • Add compound solutions into the assay plate. • Set the assay plate in FDSS and place an EFS device on the plate. • Measure EFS-induced fluorescent response by FDSS.
The data are analyzed and reported as normalized ratios of intensities measured at […]. The process of calculating these ratios is performed as follows:
This analysis is performed using a computerized specific program designed for FDSS generated data. Fluorescence ratio values are plotted using XLfit to determine an IC50 value for each compound.

Nav1.7, sequence (Q15858 whole entry): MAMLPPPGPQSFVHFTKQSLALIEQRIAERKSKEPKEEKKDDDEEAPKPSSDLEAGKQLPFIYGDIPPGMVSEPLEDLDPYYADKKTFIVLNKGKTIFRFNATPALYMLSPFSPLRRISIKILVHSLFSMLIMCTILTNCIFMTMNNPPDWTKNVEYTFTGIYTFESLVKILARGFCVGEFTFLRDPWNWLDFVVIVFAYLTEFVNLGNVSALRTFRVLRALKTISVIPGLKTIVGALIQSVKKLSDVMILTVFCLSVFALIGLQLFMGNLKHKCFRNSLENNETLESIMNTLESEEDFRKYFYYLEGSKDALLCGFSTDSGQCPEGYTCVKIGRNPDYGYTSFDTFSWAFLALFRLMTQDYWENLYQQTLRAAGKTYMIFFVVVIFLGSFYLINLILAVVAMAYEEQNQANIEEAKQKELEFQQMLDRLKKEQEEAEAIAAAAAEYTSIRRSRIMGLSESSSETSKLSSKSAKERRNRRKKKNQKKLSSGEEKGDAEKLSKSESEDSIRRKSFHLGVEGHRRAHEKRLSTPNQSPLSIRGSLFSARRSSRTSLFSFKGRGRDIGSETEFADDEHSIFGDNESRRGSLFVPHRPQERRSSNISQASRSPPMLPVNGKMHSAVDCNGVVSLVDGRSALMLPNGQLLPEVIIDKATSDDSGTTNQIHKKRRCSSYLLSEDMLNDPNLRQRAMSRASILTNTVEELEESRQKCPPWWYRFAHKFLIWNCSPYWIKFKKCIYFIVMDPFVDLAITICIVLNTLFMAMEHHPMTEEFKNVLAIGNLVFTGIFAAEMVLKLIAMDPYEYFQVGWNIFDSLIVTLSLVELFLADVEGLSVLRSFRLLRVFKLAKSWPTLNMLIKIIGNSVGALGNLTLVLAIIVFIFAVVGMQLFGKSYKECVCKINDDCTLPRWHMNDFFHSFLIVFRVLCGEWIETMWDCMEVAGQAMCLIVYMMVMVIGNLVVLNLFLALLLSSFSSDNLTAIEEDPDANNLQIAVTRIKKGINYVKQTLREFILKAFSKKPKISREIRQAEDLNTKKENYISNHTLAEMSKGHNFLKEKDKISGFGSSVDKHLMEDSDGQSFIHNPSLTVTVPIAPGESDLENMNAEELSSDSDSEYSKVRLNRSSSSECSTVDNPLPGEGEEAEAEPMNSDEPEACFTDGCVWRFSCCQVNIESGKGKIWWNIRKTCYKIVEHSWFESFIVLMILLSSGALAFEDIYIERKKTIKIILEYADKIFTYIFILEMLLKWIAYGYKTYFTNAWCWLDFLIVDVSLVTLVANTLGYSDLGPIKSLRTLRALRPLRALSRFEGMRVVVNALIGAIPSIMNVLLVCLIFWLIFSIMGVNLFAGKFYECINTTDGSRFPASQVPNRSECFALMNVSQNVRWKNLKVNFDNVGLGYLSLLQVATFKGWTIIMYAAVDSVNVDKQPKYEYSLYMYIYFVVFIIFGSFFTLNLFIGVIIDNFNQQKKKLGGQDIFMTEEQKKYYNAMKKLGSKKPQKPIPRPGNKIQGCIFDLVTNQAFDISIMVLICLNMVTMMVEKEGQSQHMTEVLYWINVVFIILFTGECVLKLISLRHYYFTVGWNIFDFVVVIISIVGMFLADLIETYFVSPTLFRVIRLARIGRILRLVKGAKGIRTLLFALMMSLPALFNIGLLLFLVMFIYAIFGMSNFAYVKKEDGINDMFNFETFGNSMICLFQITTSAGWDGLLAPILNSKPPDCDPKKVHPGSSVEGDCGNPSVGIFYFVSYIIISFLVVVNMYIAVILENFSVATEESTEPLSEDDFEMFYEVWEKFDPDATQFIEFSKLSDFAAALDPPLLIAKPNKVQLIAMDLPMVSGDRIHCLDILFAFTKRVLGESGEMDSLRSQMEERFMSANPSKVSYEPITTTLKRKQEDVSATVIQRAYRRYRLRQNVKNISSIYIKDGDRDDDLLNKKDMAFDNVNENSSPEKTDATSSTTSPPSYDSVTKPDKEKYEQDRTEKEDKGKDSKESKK

SMILES | IC50
CCC(=O)Nc1cc(C(=O)N[C@@H]2CCN(c3ccc(C(F)(F)F)cn3)C2)ccn1 [Example 16] | < 0.5 µM
CCC(=O)Nc1cc(C(=O)N[C@@H]2CCN(c3ncc(C(F)(F)F)cc3OC)C2)ccn1 [Example 38] | < 0.5 µM
COc1cc(C(F)(F)F)cnc1N1CC[C@@H](NC(=O)c2cc(C)nc(NC(C)=O)c2)C1 [Example 39] | < 0.5 µM
CCC(=O)Nc1cc(C(=O)NC2CCC(C)N(c3ncc(C(F)(F)F)cc3Cl)C2)ccn1 (centres unmarked) [Example 42] | < 0.5 µM
Cc1cc(C(F)(F)F)cnc1N1CC[C@@H](NC(=O)c2ccnc(NC(=O)C3CC3)c2)C1 [Example 47] | < 0.5 µM
Cc1cc(C(=O)NC2CN(c3ncc(C(F)(F)F)cc3Cl)C2)cc(NC(=O)C(C)C)n1 [Example 52] | < 0.5 µM
O=C(N[C@@H]1CCCN(c2ccc(C(F)(F)F)cc2Cl)C1)c1ccnc(NC(=O)C2CC2)c1 [Example 55] | < 0.5 µM
Cc1cc(C(=O)N[C@@H]2CCCN(c3ccc(C(F)(F)F)cc3Cl)C2)cc(NC(=O)C2CC2)n1 [Example 56] | < 0.5 µM
CC(C)C(=O)Nc1cc(C(=O)N[C@@H]2CCCN(c3ccc(C(F)(F)F)cc3Cl)C2)ccn1 [Example 57] | < 0.5 µM
Cc1cc(C(=O)N[C@@H]2CCCN(c3ccc(C(F)(F)F)cc3Cl)C2)cc(NC(=O)C(C)C)n1 [Example 58] | < 0.5 µM
Cc1cc(C(=O)N[C@@H]2CCCN(c3ncc(C(F)(F)F)cc3Br)C2)cc(NC(=O)C2CC2)n1 [Example 60] | < 0.5 µM
Cc1cc(C(=O)N[C@@H]2CCCN(c3ncc(C(F)(F)F)cc3C)C2)cc(NC(=O)C(C)C)n1 [Example 73] | < 0.5 µM
O=C(N[C@@H]1CCN(c2ccc(C(F)(F)F)cc2Cl)C1)c1ccnc(NC(=O)C2CC2)c1 [Example 77] | < 0.5 µM
Cc1cc(C(=O)N[C@@H]2CCN(c3ncc(C(F)(F)F)cc3Cl)C2)cc(NC(=O)C2CC2)n1 [Example 78] | < 0.5 µM
CC(C)C(=O)Nc1cc(C(=O)N[C@@H]2CCN(c3ccc(C(F)(F)F)cc3Cl)C2)ccn1 [Example 79] | < 0.5 µM
Cc1cc(C(=O)N[C@@H]2CCN(c3ccc(C(F)(F)F)cc3Cl)C2)cc(NC(=O)C(C)C)n1 [Example 80] | < 0.5 µM
COc1cc(C(F)(F)F)cnc1N1CC[C@@H](NC(=O)c2ccnc(NC(=O)C3CC3)c2)C1 [Example 81] | < 0.5 µM
COc1cc(C(F)(F)F)cnc1N1CC[C@@H](NC(=O)c2cc(C)nc(NC(=O)C3CC3)c2)C1 [Example 82] | < 0.5 µM
COc1cc(C(F)(F)F)cnc1N1CC[C@@H](NC(=O)c2ccnc(NC(=O)C(C)C)c2)C1 [Example 83] | < 0.5 µM

SMILES | IC50
COc1cc(C(F)(F)F)cnc1N1CC[C@@H](NC(=O)c2cc(C)nc(NC(=O)C(C)C)c2)C1 [Example 84] | < 0.5 µM
CCCC(=O)Nc1cc(C(=O)N[C@@H]2CCN(c3ncc(C(F)(F)F)cc3OC)C2)ccn1 [Example 88] | < 0.5 µM
O=C(N[C@@H]1CCCN(c2ncc(OCC(F)(F)F)cc2Cl)C1)c1ccnc(NC(=O)C2CC2)c1 [Example 92] | < 0.5 µM
O=C(N[C@@H]1CCN(c2ncc(OCC(F)(F)F)cc2Cl)C1)c1ccnc(NC(=O)C2CC2)c1 [Example 93] | < 0.5 µM
CCC(=O)Nc1cc(C(=O)N[C@@H]2CCN(c3ncc(OCC(F)(F)F)cc3Cl)C2)ccn1 [Example 96] | < 0.5 µM
O=C(N[C@@H]1CCCN(c2ncc(OCc3ccc(F)cc3)cc2Cl)C1)c1ccnc(NC(=O)C2CC2)c1 [Example 99] | < 0.5 µM
Cc1cc(C(=O)N[C@@H]2CCN(c3ncc(C(F)(F)F)cc3Cl)C2)cc(NC(=O)C(C)C)n1 [Example 104] | < 0.5 µM
CCC(=O)Nc1cc(C(=O)N[C@H]2CN(c3ncc(C(F)(F)F)cc3Cl)CC23CC3)cc(C)n1 [Example 107] | < 0.5 µM
CC(C)C(=O)Nc1cc(C(=O)N[C@H]2CN(c3ncc(C(F)(F)F)cc3Cl)CC23CC3)ccn1 [Example 109] | < 0.5 µM
CCC(=O)Nc1cc(C(=O)N[C@H]2CN(c3ncc(C(F)(F)F)cc3Cl)CC23CC3)ccn1 [Example 116] | < 0.5 µM
CC(=O)Nc1cc(C(=O)N[C@H]2CN(c3ncc(C(F)(F)F)cc3Cl)CC23CC3)cc(C)n1 [Example 117] | < 0.5 µM
Cc1cc(C(=O)N[C@H]2CN(c3ncc(C(F)(F)F)cc3Cl)CC23CC3)cc(NC(=O)C(C)C)n1 [Example 118] | < 0.5 µM
CC(=O)Nc1cc(C(=O)N[C@@H]2CCN(c3ccc(C(F)(F)F)cc3)C2)ccn1 [Example 120] | < 0.5 µM
O=C(N[C@@H]1CCN(c2ccc(C(F)(F)F)cc2F)C1)c1ccnc(NC(=O)C2CC2)n1 [Example 121] | < 0.5 µM
CC(C)C(=O)Nc1cc(C(=O)N[C@@H]2CCN(c3ccc(C(F)(F)F)c(F)c3)C2)ccn1 [Example 123] | < 0.5 µM
O=C(N[C@@H]1CCCN(c2ccc(OC(F)(F)F)cc2Cl)C1)c1ccnc(NC(=O)C2CC2)c1 [Example 125] | < 0.5 µM
CC(C)C(=O)Nc1cc(C(=O)N[C@@H]2CCCN(c3ccc(OC(F)(F)F)cc3Cl)C2)ccn1 [Example 127] | < 0.5 µM
Cc1cc(C(=O)N[C@@H]2CCCN(c3ccc(OC(F)(F)F)cc3Cl)C2)cc(NC(=O)C(C)C)n1 [Example 128] | < 0.5 µM

Now from value to compound:

IC50 | SMILES
< 0.5 µM | CC(=O)Nc1cc(C(=O)N[C@@H]2CCN(c3ncc(C(F)(F)F)cc3Cl)C2)ccn1 [Example 2]
< 0.5 µM | CC(=O)Nc1cc(C(=O)N[C@@H]2CCCN(c3ncc(C(F)(F)F)cc3Cl)C2)ccn1 [Example 5]
< 0.5 µM | CCC(=O)Nc1cc(C(=O)N[C@@H]2CCCN(c3ncc(C(F)(F)F)cc3Cl)C2)ccn1 [Example 6]
< 0.5 µM | CC(=O)Nc1cc(C(=O)NC2CN(c3ncc(C(F)(F)F)cc3Cl)C2)ccn1 [Example 8]
< 0.5 µM | CC(C)C(=O)Nc1cc(C(=O)N[C@@H]2CCN(c3ncc(C(F)(F)F)cc3Cl)C2)ccn1 [Example 10]
< 0.5 µM | CCC(=O)Nc1cc(C(=O)N[C@@H]2CCN(c3ncc(C(F)(F)F)cc3Cl)C2)cc(C)n1 [Example 11]
< 0.5 µM | CCC(=O)Nc1nccc(C(=O)N[C@@H]2CCN(c3ncc(C(F)(F)F)cc3Cl)C2)n1 [Example 20]
< 0.5 µM | O=C(N[C@@H]1CCN(c2ncc(C(F)(F)F)cc2Cl)C1)c1ccnc(NC(=O)C2CC2)n1 [Example 21]
< 0.5 µM | CC(C)C(=O)Nc1nccc(C(=O)N[C@@H]2CCN(c3ncc(C(F)(F)F)cc3Cl)C2)n1 [Example 22]
< 0.5 µM | O=C(N[C@@H]1CCN(c2ncc(C(F)(F)F)cc2Cl)C1)c1ccnc(NC(=O)C2CCC2)n1 [Example 23]
< 0.5 µM | CC(=O)Nc1nccc(C(=O)N[C@@H]2CCCN(c3ncc(C(F)(F)F)cc3Cl)C2)n1 [Example 24]
< 0.5 µM | CCC(=O)Nc1nccc(C(=O)N[C@@H]2CCCN(c3ncc(C(F)(F)F)cc3Cl)C2)n1 [Example 25]
< 0.5 µM | O=C(N[C@@H]1CCCN(c2ncc(C(F)(F)F)cc2Cl)C1)c1ccnc(NC(=O)C2CC2)n1 [Example 26]
< 0.5 µM | CC(C)C(=O)Nc1nccc(C(=O)N[C@@H]2CCCN(c3ncc(C(F)(F)F)cc3Cl)C2)n1 [Example 27]
< 0.5 µM | O=C(N[C@@H]1CCCN(c2ncc(C(F)(F)F)cc2Cl)C1)c1ccnc(NC(=O)C2CCC2)n1 [Example 28]
< 0.5 µM | COc1cc(C(F)(F)F)cnc1N1CC[C@@H](NC(=O)c2ccnc(NC(C)=O)c2)C1 [Example 37]
< 0.5 µM | CC(=O)Nc1cc(C(=O)NC2CCC(C)N(c3ncc(C(F)(F)F)cc3Cl)C2)ccn1 (centres unmarked) [Example 41]
< 0.5 µM | CC(=O)Nc1cc(C(=O)N[C@@H]2CCN(c3ncc(C(F)(F)F)cc3C)C2)ccn1 [Example 46]
< 0.5 µM | CCC(=O)Nc1cc(C(=O)N[C@@H]2CCN(c3ncc(C(F)(F)F)cc3Cl)C2)ccn1 [Example 48]
< 0.5 µM | CC(=O)Nc1cc(C(=O)N[C@@H]2CCN(c3ncc(C(F)(F)F)cc3Cl)C2)cc(C)n1 [Example 49]
< 0.5 µM | CC(C)C(=O)Nc1cc(C(=O)NC2CN(c3ncc(C(F)(F)F)cc3Cl)C2)ccn1 [Example 50]
< 0.5 µM | CC(=O)Nc1cc(C(=O)NC2CN(c3ncc(C(F)(F)F)cc3Cl)C2)cc(C)n1 [Example 51]
< 0.5 µM | Cc1cc(C(=O)NC2CN(c3ncc(C(F)(F)F)cc3Cl)C2)nc(NC(=O)C2CC2)n1 [Example 53]
< 0.5 µM | O=C(N[C@@H]1CCCN(c2ncc(C(F)(F)F)cc2Br)C1)c1ccnc(NC(=O)C2CC2)c1 [Example 59]
< 0.5 µM | CCC(=O)Nc1cc(C(=O)N[C@@H]2CCCN(c3ncc(OCC(F)(F)F)cc3Cl)C2)ccn1 [Example 95]
< 0.5 µM | Cc1cc(C(=O)N[C@@H]2CCCN(c3ncc(C(F)(F)F)cc3Cl)C2)nc(NC(=O)C2CC2)n1 [Example 114]
< 0.5 µM | O=C(N[C@H]1CN(c2ncc(C(F)(F)F)cc2Cl)CC12CC2)c1ccnc(NC(=O)C2CC2)n1 [Example 119]
< 0.5 µM | O=C(N[C@@H]1CCCN(c2ccc(OC(F)(F)F)cc2Cl)C1)c1ccnc(NC(=O)C2CC2)n1 [Example 126]
